Data on three compounds can be found in patent US20250057958A1, “CYTOTOXICITY TARGETING CHIMERAS FOR CCR2-EXPRESSING CELLS” (GLAXOSMITHKLINE INTELLECTUAL PROPERTY DEVELOPMENT LIMITED, priority 2022, published 2025).

Series [1] deals with T1, CHOK1 cells engineered to overexpress human CCR2 (Homo sapiens, UniProt P41597).
T1 construct: expressed in transfected cells; host or cells: CHOK1 cells
Description: Antibody dependent cellular cytotoxicity (ADCC) reporter assay. It is filed as cell-based. Conditions: with anti-cotinine antibody (SEQ ID NO: 11/12, human IgG1 Fc S239D/I332E); Jurkat FcγRIIIa NFAT-luciferase reporter cells; 12-18 hours; average if more than one run; read-out: ADCC Reporter Assay pEC50 (converted). The method in brief:
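Target CHOK1 cells overexpressing human CCR2 co-incubated 12-18 h with compound (1 pM–10 μM), anti-cotinine antibody (rabbit variable region, human IgG1 Fc S239D/I332E; 0.01–200 μg/mL) and Jurkat FcγRIIIa NFAT-luciferase reporter cells. Luminescence expressed as signal:background versus no-compound wells; EC50 from nonlinear regression, reported as pEC50 averaged across runs.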
(Reporter assays use an easily measured gene product as a stand-in for the process of interest.)

Series [2] in a line: Blood drug concentration analysis (PK) in the in vivo depletion assay. Set-up: species or system human CCR2 (hCCR2) knock-in mice. To be noted: human CCR2 (hCCR2) knock-in, C57 background, mouse, whole blood, LC-MS/MS, IV bolus 0.1 mpk compound + 10 mpk anti-cotinine antibody, 48 hours post-dose, read-out: Exposure of Compound of Formula (I) 48 hours post-dose. As for the experimental part:
Human CCR2 (hCCR2) knock-in mice (C57 background) were dosed intravenously with a PBS solution containing a compound of Formula (I) to measure depletion of CCR2 expressing cells in peripheral blood. Peripheral blood from IV dosed mice was also analyzed to determine PK properties of the compounds of Formula (I).
Administration to Animal: Solution formulation of antibody and compound of Formula (I) was injected (bolus injection) to the restrained mouse in the right/left lateral tail vein. Animals were dosed with 0.1 milligram per kilogram (mpk) of the compound of Formula (I) and 10 mpk of the anti-cotinine antibody.
Collection of Blood for PK: Blood was collected at time points 0.25 hour, 2 hours, and […] following administration (50 μL/time point) through retro-orbital bleeding under mild isoflurane anesthesia.
Terminal bleeding at end of experiment (48 hr): Approximately 250 μL of blood in K2EDTA tube and approximately 250 μL of blood in SST (serum separation tube) was collected from each mouse through retro-orbital bleeding under deep isoflurane anesthesia. After bleeding, each mouse was sacrificed by cervical dislocation. The blood distribution at termination was determined as follows: • For PK: 50 μL of K2EDTA blood was transferred to another tube for PK • Flow cytometry: Remaining blood (˜200 μL) was used for flow cytometry analysis. • For serum collection: serum separator tubes (BD) were centrifuged at 4° C., 5000 rpm for 15 minutes. Approximately 100 μL serum was separated and stored at −80° C. for further usage. • Blood drug concentration: Samples collected at the various timepoints (0.25 hr, 2 hr, 24 and 48 hr) were analyzed to determine blood drug concentration.
Blood drug concentration analysis: Drug concentration in blood samples was determined by an LC-MS/MS-based bioanalytical method developed at Syngene. Samples were analyzed on Q-Trap, API-5500 LC-MS/MS system coupled with Exion UHPLC system from SCIEX, USA operated in multiple reaction monitoring mode employing electrospray ionization technique in positive polarity. Analyte and internal standard peaks were resolved on Synergi Polar, 75×2.0 mm, 4 μcolumn using mobile phase 10 mM Ammonium acetate in Milli-Q water as phase A and 0.1% Formic acid in acetonitrile as Phase B. Gradient elution was performed with initial composition 95% Phase A at 0.0 min, holding it for 0.2 minutes, ramping to 5% by 1.0 minute, keeping the same for next 0.5 minutes and coming back to 95% by 1.6 minutes. The total run time was 2 minutes.
Working dilutions for calibration curve and quality control standards were prepared by serially diluting 20 mg/mL stock solution with DMSO. Spiked concentrations for calibration curve in the whole blood ranged from 1 ng/mL to 1000 ng/mL. […]

On to `CC(=O)N[C@@H]1C[C@H](NC(C)(C)C)CC[C@@H]1N1CC[C@H](Nc2nc(CCCCNC(=O)[C@H]3CC[C@H](NC(=O)CCCO[C@H]4CC[C@H](OCCNC(=O)[C@H]5CC(=O)N(C)[C@@H]5c5cccnc5)CC4)CC3)nc3ccc(C(F)(F)F)cc23)C1=O` [Example 3, (2S,3S)-N-(2-(((1R,4S)-4-(4-(((1S,4R)-4-((4-(4-(((S)-1-((1S,2R,4R)-2-Acetamido-4-(tert-butylamino)cyclohexyl)-2-oxopyrrolidin-3-yl)amino)-6-(trifluoromethyl)quinazolin-2-yl)butyl)carbamoyl)cyclohexyl)amino)-4-oxobutoxy)cyclohexyl)oxy)ethyl)-1-methyl-5-oxo-2-(pyridin-3-yl)pyrrolidine-3-carboxamide], for which, in series [1], the EC50 is 0.158 nM. Also, the concentration at 48 h in series [2] amounted to 37.1 ng/mL.

With `CC(=O)N[C@@H]1C[C@H](NC(C)(C)C)CC[C@@H]1N1CC[C@H](Nc2nc([C@H]3CC[C@@H](NC(=O)[C@H]4CC[C@H](NC(=O)CCCO[C@H]5CC[C@H](OCCNC(=O)[C@H]6CC(=O)N(C)[C@@H]6c6cccnc6)CC5)CC4)CC3)nc3ccc(C(F)(F)F)cc23)C1=O` [Example 10, (2S,3S)-N-(2-(((1R,4S)-4-(4-(((1R,4R)-4-(((1R,4S)-4-(4-(((S)-1-((1S,2R,4R)-2-Acetamido-4-(tert-butylamino)cyclohexyl)-2-oxopyrrolidin-3-yl)amino)-6-(trifluoromethyl)quinazolin-2-yl)cyclohexyl)carbamoyl)cyclohexyl)amino)-4-oxobutoxy)cyclohexyl)oxy)ethyl)-1-methyl-5-oxo-2-(pyridin-3-yl)pyrrolidine-3-carboxamide], the EC50 in series [1] was 0.251 nM. Further, the concentration at 48 h in series [2] turned out to be 35.5 ng/mL.

`CC(=O)N[C@@H]1C[C@H](NC(C)(C)C)CC[C@@H]1N1CC[C@H](Nc2nc([C@H]3CC[C@H](NC(=O)[C@H]4CC[C@H](NC(=O)CCCO[C@H]5CC[C@H](OCCNC(=O)[C@H]6CC(=O)N(C)[C@@H]6c6cccnc6)CC5)CC4)CC3)nc3ccc(C(F)(F)F)cc23)C1=O` [Example 11, (2S,3S)-N-(2-(((1R,4S)-4-(4-(((1S,4R)-4-(((1S,4R)-4-(4-(((S)-1-((1S,2R,4R)-2-Acetamido-4-(tert-butylamino)cyclohexyl)-2-oxopyrrolidin-3-yl)amino)-6-(trifluoromethyl)quinazolin-2-yl)cyclohexyl)carbamoyl)cyclohexyl)amino)-4-oxobutoxy)cyclohexyl)oxy)ethyl)-1-methyl-5-oxo-2-(pyridin-3-yl)pyrrolidine-3-carboxamide]: in series [1], the EC50 was 0.158 nM. In addition, the concentration at 48 h in series [2] amounted to 93.4 ng/mL.
